Data on 2 compounds can be found in patent US20230313313A1, “BIOMARKERS FOR CANCER THERAPY USING MDM2 ANTAGONISTS” (OTSUKA PHARMACEUTICAL CO., LTD., priority 2020, published 2023).

Molecules are shown by their SMILES. “Also recorded” adds a separate entry of the source.

The subject of data set [1] is acute myeloid leukemia blasts isolated from patients. Nature of the data set: Primary AML blasts sensitivity, 24 h apoptosis assay (Annexin V/PI). The conditions noted are these: 13 primary AML samples, two concentrations. The format is cell-based, human. How it is done: Low SKP2 expression is a biomarker for sensitivity of AML to MDM2 antagnists in patient-derived samples.
Evaluation of Primary AML Blasts Sensitivity to Compound 1
Primary frozen AML samples were purchased from NBS Biobank (Moscow, Russia). 13 primary AML samples with high blast content (>80%) were cultured in selected expansion media composed by StemSpan SFEM II media (Stemcell, #09605), 1× StemSpan CD34+ expansion supplement (Stemcell, #02691), 2% FBS and 1% Penicillin/Streptomycin.
Evaluation of SKP2 Protein Expression on Primary AML Blasts
Capillary Western analyses were performed using the ProteinSimple Wes System (San Jose, CA, USA). Antibodies used were specific for SKP2 (#4358) and TXN1 (#2429) as loading control. Samples were diluted with 0.1× Sample Buffer. Then 4 parts of diluted sample were combined with 1 part 5× Fluorescent Master Mix (containing 5× sample buffer, 5× fluorescent standard, and 200 mM DTT) and heated at 95° C. for 5 min. After this denaturation step, the prepared samples, blocking reagent, primary antibodies (1:10 dilution for SKP2, 1:100 for TXN1), HRP-conjugated secondary antibodies and chemiluminescent substrate were dispensed into designated wells in an assay plate. A biotinylated ladder provided molecular weight standards for each assay. […]

Data set [2] deals with MV4-11 cells. Nature of the data set: In vivo systemic AML mouse model, PCR for circulating human DNA. To be noted: MV4-11 empty vector (absence of SKP2 overexpression); NSG mice. How it is done: In addition to assessing the effect of SKP2 overexpression and knockdown in vitro, the impact of SKP2 on cancer proliferation was evaluated in vivo, using a disseminated AML model based on the MV4-11 cell line. To generate a systemic in vivo model of AML, NSG mice were injected in the tail vein with MV4-11 cells engineered to overexpress SKP2 or empty vector. Systemic tumour burden was assessed by PCR for circulating human DNA.
(§1) In Vivo Systemic AML Mouse Model
(§2) Female NSG Mice (6-8 weeks old) were bought from Jackson Laboratories (Bar Harbor, ME). Animals were given an intravenous injection of 5×10^6 MV4-11 cells and tumour engraftment was assessed by PCR for circulating human DNA. Mice were randomized to treatment groups based on systemic tumour burden as detected by PCR. Leukemic burden was then monitored weekly by serial bleeding followed by PCR. Mice were observed daily and euthanized humanely upon signs of terminal illness (hind limb paralysis, inability to eat/drink, moribund lethargy).
PCR for Circulating Human DNA
Blood samples were collected in heparinized capillary tubes and samples were stored at −80° C. until analysis. DNA was extracted using the DNeasy Blood & Tissue Kit (Qiagen, Cat: 69504) and PCR for human DNA was run using TaqMan™ Genotyping Master Mix (ThermoFisherScientific Catalog number: 4371355) using the following primers: […]

Data set [3] has as its system OCI-AML3 cells. Nature of the data set: Induction of apoptosis by cleaved caspase-3 cytometry, combination with IAP antagonist. The class given is cell-based, human. The conditions noted are these: 0.1 μM, 72 h.
Method: Cleaved caspase-3 staining was recorded in the FL1 (green) channel, with unstained and DMSO control wells being used to set the gated stained and unstained cell populations—allowing the percentage of cells that are apoptotic to be calculated.
For data set [4], the system named is MV4-11 cells. Nature of the data set: Alamar Blue proliferation assay, MV4-11 overexpressing SKP2 vs control. The class given is cell-based, human. To be noted: MV4-11 SKP2 OE compared to control. How it is done: (§3) Precision LentiORF Transduction:
(§4) Precision LentiORF Lentiviral Transduction Particles (Cat. OHS5900-224629438, Dharmacon, UK) were used to overexpress SKP2 in the MV4-11 AML cell line. Stable gene overexpression was established by cellular resistance to blasticidin (5 μg/ml) and was confirmed at the protein level by western blot. The Precision LentiORF control empty vector (Dharmacon, UK) served as a negative control.
The number of viable cells was determined by Alamar Blue assay (Bio-Rad, Irvine, CA, USA). All cell lines were grown and assayed in RPMI-1640+10% FBS medium.
Compounds were diluted first in DMSO and then into serum-free medium, before addition to triplicate wells of the cultured cells to give a 0.1% DMSO final concentration. […] Twenty μl of Alamar Blue™ (AbD Serotec/Bio-Rad) was added to each well and plates were then incubated for 4-6 h at 37° C. in an atmosphere of 5% CO2 and air. Plates were then read at 535 nm (excitation) and 590 nm (emission) on a SpectraMax Gemini reader (Molecular Devices, San Jose, CA, USA).
On the technique in general: Resazurin is reduced to fluorescent resorufin, in cell work by metabolically active cells.

Data set [5] concerns MV4-11 cells. Nature of the data set: Apoptosis assay by cytometry, MV4-11 overexpressing SKP2. The class given is cell-based, human. The conditions noted are these: MV4-11 SKP2 OE, 48-hour treatment with 2 different concentrations. How it is done: as §3, §4
(§5) Apoptosis Assay by Cytometry
(§6) The cell lines were plated out in 6-well plates at 0.5×10^6 cells/ml (2 ml/well) the day before treatment and allowed to recover overnight in a humidified 5% CO2/air incubator at 37° C. […] Briefly, the cells were resuspended with the Annexin V-binding buffer and stained with Annexin V-conjugate. Samples were incubated for 20 min at room temperature in the dark. After washing with the Annexin V-binding buffer, the cells were analyzed with a flow cytometer.
(§7) For caspase 3/7 staining CellEvent™ Caspase 3/7 Green reagent (Life Technologies), a fluorogenic substrate for activated caspase-3 and -7 was used according to the manufacturer's protocol. The cells were incubated with 5 μM of substrate for 30 min at room temperature and then analyzed with a flow cytometer.

The subject of data set [6] is OCI-AML3 AML cell line. Put plainly: Apoptosis after SKP2 knockdown in a non-apoptotic AML cell line. The format is cell-based, human. How it is done:
shRNA Lentiviral Transduction:
MISSION® shRNA Lentiviral Transduction Particles (Sigma Aldrich, Pool, UK) were used to knockdown SKP2 in the OCI-AML3 AML cell line. Stable gene knockdown was established by cellular resistance to puromycin (1 μg/ml) and was confirmed at the protein level by western blot.
as §5, §6, §7

Data set [7] has as its system AML cell lines. Put plainly: Activated caspase-3 by cytometry in AML cell lines. The format is cell-based, human. How it is done:
Levels of Compound 1-induced apoptosis were measured as percentage of cells with activated caspase-3. […] The extent of Compound 1-induced apoptosis is not predicted from the IC50 values obtained from the Alamar Blue proliferation assays, thus emphasising the impact of grouping cell lines specifically based on their apoptotic potential for subsequent analyses described in the following section.
Activated Caspase-3 by Cytometry
The cell lines were plated out in 6-well plates at 0.5×10^6 cells/ml (2 ml/well) the day before treatment and allowed to recover overnight in a humidified 5% CO2/air incubator at 37° C. […] 200 μl of each sample was added to duplicate wells of a 96-well plate. To one of the two wells, 50 μl of serum-free medium was added as an unstained control. […] The plate was incubated in the dark for 30 minutes before measuring fluorescent stained cells in a Guava EasyCyte HT cytometer (Merck Millipore, Kenilworth, NJ, USA). Activated caspase-3 staining was recorded in the GRN-B (green) channel, with unstained and DMSO control wells being used to set the gated stained and unstained cell populations—allowing the percentage of cells that are apoptotic to be calculated.

The test system of data set [8] is MV4-11 tumour cells in the bone marrow. Put plainly: In vivo systemic AML mouse model, bone marrow flow cytometry. Set-up: species or system NSG mice. To be noted: 14 days after treatment. How it is done: Thus, overexpression of SKP2 is able to turn a sensitive AML cell line into a resistant cell line in vivo, providing evidence that low SKP2 is an important biomarker for sensitivity to MDM2 antagonism.
as §1, §2
Bone Marrow Flow Cytometry
Bone marrow cells were stained with PE-CF594 Anti-Human CD45 (BD 562312), BB515 Anti-Mouse CD45 (BD 564590) and DAPI. The amount of human cells engrafted in the bone marrow is expressed as % of viable mouse CD45+ cells.
On the technique in general: In flow cytometry, cells or beads pass a laser one at a time.

Data set [9] has as its system SJSA-1. Put plainly: Protocol B: SJSA-1 CellTiter-Glo Luminescent Cell Viability Assay. To be noted: Homo sapiens, SJSA-1, read-out: SJSA1 IC50 (μM) (Protocol B). A general note: Cellular ATP, detected with luciferase, serves as a proxy for viable cell number.

For the compound `CC[C@@](O)(c1cc(F)c2c(c1)C(=O)N([C@H](c1ccc(Cl)cc1)[C@H](C)C(=O)O)[C@@]2(OC)c1ccc(Cl)cc1)C1CCOCC1` [Compound 1, (2S,3S)-3-(4-chlorophenyl)-3-[(1R)-1-(4-chlorophenyl)-7-fluoro-5-[(1S)-1-hydroxy-1-(oxan-4-yl)propyl]-1-methoxy-3-oxo-2,3-dihydro-1H-isoindol-2-yl]-2-methylpropanoic acid], the “sensitivity of SKP2 low blasts compared with SKP2 high blasts” value in data set [1] is “more sensitive”. Besides, the “systemic tumour burden (circulating human DNA)” value in data set [2] is “only low levels of circulating human DNA”. Moreover, the “level of apoptosis (cleaved caspase-3), single agent” value is “did not induce a high level of apoptosis” in [3] and “does not induce substantial levels of cell death by apoptosis” in data set [3] (listed as Compund 1). In data set [4], the “effect of SKP2 overexpression on cytotoxicity / sensitivity” value is “reduces Compound 1-induced cytotoxicity; also recorded: resistant”. In data set [5], the “effect of SKP2 overexpression on apoptosis / cell death” value is recorded as “reduces Compound 1-dependent cell death; also recorded: strong reduction in apoptosis”. The “effect of SKP2 knockdown on cytotoxicity” value in data set [6] (non-apoptotic AML cell line) is on record as “increases Compound 1-induced cytotoxicity”. Moreover, the “increase of apoptosis on SKP2 knockdown compared to control (no SKP2 knockdown)” value in data set [6] (non-apoptotic AML cell line (high basal SKP2), 0.1 μM) was “about 30%”. Also, the “apoptosis (cells with activated caspase-3)” value in data set [7] (HNT-34, OCI-AML3, ML-2, GDM-1 (non-apoptotic), 48-hour treatment with 100 nM) is less than 30%. In data set [7] (MV4-11, EOL-1, Molm-13, OCI-AML-2 and BDCM (apoptotic), 48-hour treatment with 100 nM), the “cells staining positive for activated caspase-3” value is reported as greater than 30%. In addition, in data set [7] (panel of 12 AML cell lines, negative control KG-1, TP53 mutant), the “increase in activated caspase-3” value is “observed in all cell lines except the negative control”. Moreover, the “bone marrow tumour burden (FACS)” value in data set [8] (SKP2 overexpressed) is reported as “does not reduce the number of leukemic cells; also recorded: no effects”. For the same compound, in data set [8] (absence of SKP2 overexpression), the “leukemic tumour cells in the bone marrow (FACS)” value is “reduces the number of leukemia cells; also recorded: significant decrease”.
A word on the IC50: it is the concentration that inhibits the measured activity by half. On to `[2H]C([2H])(O)C1(C([2H])([2H])O[C@]2(c3ccc(Cl)cc3)c3c(F)cc(C(O)(CC)c4cn(C)cn4)cc3C(=O)N2Cc2ccc(C#N)cn2)CC1` (some centres unmarked) [Example 440], for which the half-maximal inhibitory concentration (IC50) in data set [9] was determined as 1.9 µM.
